pIC50: −log10 of the molar value. Each block holds one molecule with its values, some of them ahead of it. Active and inactive are the calls of the source. The calls are words filed in the database; no cut-off is given here.
What was measured:
[1] = target: T1, Cytochrome P450 1A1 (Homo sapiens, UniProt P04798); test: Drug metabolism assessed as recombinant CYP1A1 (unknown origin)-mediated compound intrinsic clearance measured per mg of protein; type: ADME; conditions: recombinant enzyme
T1 sequence (P04798 whole entry): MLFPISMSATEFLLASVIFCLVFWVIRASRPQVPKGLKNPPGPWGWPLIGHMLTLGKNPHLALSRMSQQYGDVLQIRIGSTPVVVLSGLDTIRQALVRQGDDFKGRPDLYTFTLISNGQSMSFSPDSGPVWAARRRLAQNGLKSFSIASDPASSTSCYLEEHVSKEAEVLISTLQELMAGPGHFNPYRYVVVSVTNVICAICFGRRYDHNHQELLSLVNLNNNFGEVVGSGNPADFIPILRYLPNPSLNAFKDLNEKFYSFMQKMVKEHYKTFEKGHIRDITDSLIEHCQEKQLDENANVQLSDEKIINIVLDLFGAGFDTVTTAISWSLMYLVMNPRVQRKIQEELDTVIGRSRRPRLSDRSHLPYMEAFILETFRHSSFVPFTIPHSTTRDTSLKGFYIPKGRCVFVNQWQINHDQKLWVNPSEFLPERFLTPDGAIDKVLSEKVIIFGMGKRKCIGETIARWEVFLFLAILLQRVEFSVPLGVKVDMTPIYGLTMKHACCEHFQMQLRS

[2] = Intrinsic clearance in human liver microsomes measured per mg of protein
[3] = Plasma clearance in rat; type: ADME
[4] = Total plasma clearance in iv dosed rat; type: ADME, organism-based
[5] = system: HeLa; test: Selectivity for BRCA1 shRNA-transfected human HeLa cells over wild type human HeLa cells
[6] = Drug metabolism in rat lung microsomes assessed as compound turnover; type: ADME
[7] = Drug metabolism in rat kidney microsomes assessed as compound turnover; type: ADME
[8] = target: Poly [ADP-ribose] polymerase 1 (Homo sapiens, UniProt P09874)
Sequence of Poly [ADP-ribose] polymerase 1 (P09874 whole entry): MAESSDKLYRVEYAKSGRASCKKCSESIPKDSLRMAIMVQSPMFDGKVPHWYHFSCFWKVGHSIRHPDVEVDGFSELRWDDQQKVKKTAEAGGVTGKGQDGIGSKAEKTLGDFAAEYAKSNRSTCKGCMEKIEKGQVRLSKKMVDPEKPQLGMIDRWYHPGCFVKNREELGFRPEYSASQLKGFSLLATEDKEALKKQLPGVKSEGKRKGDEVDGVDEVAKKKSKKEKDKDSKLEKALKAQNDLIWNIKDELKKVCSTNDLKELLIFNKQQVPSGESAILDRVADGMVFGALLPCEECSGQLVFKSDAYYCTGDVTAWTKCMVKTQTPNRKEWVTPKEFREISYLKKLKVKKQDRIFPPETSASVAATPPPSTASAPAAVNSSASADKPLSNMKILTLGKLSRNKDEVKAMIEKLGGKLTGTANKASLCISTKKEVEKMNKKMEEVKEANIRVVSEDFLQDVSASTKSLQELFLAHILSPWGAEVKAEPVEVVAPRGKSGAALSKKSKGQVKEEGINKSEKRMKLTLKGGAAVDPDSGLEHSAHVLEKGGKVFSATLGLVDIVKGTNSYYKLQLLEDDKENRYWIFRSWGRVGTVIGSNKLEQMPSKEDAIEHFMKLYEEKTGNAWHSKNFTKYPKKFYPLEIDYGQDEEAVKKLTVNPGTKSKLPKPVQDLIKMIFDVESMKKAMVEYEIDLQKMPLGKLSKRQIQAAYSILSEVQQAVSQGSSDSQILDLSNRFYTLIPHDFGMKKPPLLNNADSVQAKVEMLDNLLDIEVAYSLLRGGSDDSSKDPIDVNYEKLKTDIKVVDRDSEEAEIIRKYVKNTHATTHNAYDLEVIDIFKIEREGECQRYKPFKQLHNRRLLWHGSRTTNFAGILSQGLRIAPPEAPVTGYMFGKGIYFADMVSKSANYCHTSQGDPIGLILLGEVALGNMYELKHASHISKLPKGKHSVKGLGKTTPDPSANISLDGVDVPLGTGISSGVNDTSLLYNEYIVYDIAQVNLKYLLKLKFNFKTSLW
Description: Inhibition of PARP1 (unknown origin)

[9] = target: T2, PARP 1, 2 and 3 (Homo sapiens) (UniProt P09874+Q9Y6F1+Q9UGN5); conditions: MDA-MB-436, 50 to 100 mg/kg
Description: Inhibition of PARP activity in tumor of immunocompromised mouse xenografted with human MDA-MB-436 cells harboring BRCA1 mutant assessed as incorporation of [3H]NAD in PAR chains in response to nicked DNA at 50 to 100 mg/kg, po measured after 24 hrs

[10] = in vivo; conditions: dog, plasma
[11] = target: T2, PARP 1, 2 and 3 (Homo sapiens); conditions: CAPAN-1, 50 to 100 mg/kg
Description: Inhibition of PARP activity in tumor of immunocompromised mouse xenografted with BRCA2-deficient human Capan1 cells assessed as incorporation of [3H]NAD in PAR chains in response to nicked DNA at 50 to 100 mg/kg, po measured after 24 hrs

[12] = Terminal half life in dog; conditions: in vivo
[13] = Drug metabolism in iv dosed bile cannulated rat assessed as parent compound recovery
[14] = cells; conditions: Homo sapiens, UWB1289
Description: Cytotoxicity against human UWB1.289 cells carrying BRCA1 mutant assessed as inhibition of cell proliferation after 5 to 7 days by CellTiter-Blue assay

[15] = system: DoTc2-4510; test: cells; conditions: Homo sapiens
Description: Cytotoxicity against human DoTc2-4510 cells carrying BRCA2 mutant assessed as inhibition of cell proliferation after 5 to 7 days by CellTiter-Blue assay

[16] = cells; conditions: Homo sapiens, SUM149PT
Description: Cytotoxicity against human SUM149PT cells carrying BRCA1 mutant assessed as inhibition of cell proliferation after 5 to 7 days by CellTiter-Blue assay

[17] = species: Rattus norvegicus; test: Terminal half life in rat; type: ADME, organism-based; conditions: in vivo
[18] = system: HeLa; test: Cytotoxicity against human HeLa cells transfected with BRCA1 shRNA assessed as reduction of cell viability after 5 to 7 days by CellTiter-Blue assay; type: functional
[19] = Plasma concentration in CD-1 mouse at 50 mg/kg, po after 24 hrs
[20] = system: HeLa; test: cells; conditions: Homo sapiens
Description: Cytotoxicity against wild type human HeLa cells assessed as inhibition of cell proliferation after 5 to 7 days by CellTiter-Blue assay

[21] = target: T2, PARP 1, 2 and 3 (Homo sapiens); conditions: CAPAN-1
Description: Inhibition of PARP in BRCA2-deficient human CAPAN-1 cells assessed as inhibition of hydrogen peroxide-induced PARylation by cell-based assay

[22] = system: A549; test: cells; conditions: Homo sapiens
Description: Cytotoxicity against human A549 cells transfected with BRCA2 shRNA assessed as inhibition of cell proliferation after 5 to 7 days by CellTiter-Blue assay

[23] = system: Plasma; test: Plasma trough concentration in human at 40 mg/day; conditions: read-out: Cmin
[24] = Cytotoxicity against human SUM1315MO2 cells carrying BRCA1 mutant assessed as inhibition of cell proliferation after 12 days by CellTiter-Blue assay; conditions: SUM1315MO2, 288 h
[25] = in vitro; conditions: human, BT20 cells
Description: Cytotoxicity against human BT20 cells assessed as inhibition of cell proliferation after 5 to 7 days by CellTiter-Blue assay

[26] = Fraction unbound in mouse plasma
[27] = target: T2, PARP 1, 2 and 3 (Homo sapiens); conditions: HeLa
Description: Inhibition of PARP in human HeLa cells assessed as inhibition of hydrogen peroxide-induced PARylation by cell-based assay

[28] = Fraction unbound in human plasma
[29] = target: T2, PARP 1, 2 and 3 (Homo sapiens); conditions: A2780
Description: Inhibition of PARP in human A2780 cells assessed as inhibition of hydrogen peroxide-induced PARylation by cell-based assay

[30] = system: MDA-MB-436; conditions: Homo sapiens, 80 mg/kg
Description: Antitumor activity against human MDA-MB-436 cells harboring BRCA1 mutant xenografted in immunocompromised mouse assessed as tumor growth inhibition at 80 mg/kg, po qd for 1 to 2 weeks

[31] = system: MDA-MB-436; conditions: Homo sapiens, 50 mg/kg
Description: Antitumor activity against human MDA-MB-436 cells harboring BRCA1 mutant xenografted in immunocompromised mouse assessed as tumor growth inhibition at 50 mg/kg, po administered daily

[32] = system: A549; test: cells; conditions: Homo sapiens; remark: listed apart in the source
Description: Cytotoxicity against wild type human A549 cells assessed as inhibition of cell proliferation after 5 to 7 days by CellTiter-Blue assay

[33] = Oral bioavailability in dog; conditions: in vivo
[34] = Drug metabolism in iv dosed bile cannulated dog assessed as parent compound recovery
[35] = system: Plasma; test: Plasma trough concentration in human at 300 mg/day; conditions: read-out: Cmin
[36] = Antitumor activity against BRCA2-deficient human Capan1 cells xenografted in immunocompromised mouse assessed as tumor growth inhibition at 80 mg/kg, po qd for 2 to 4 weeks; conditions: CAPAN-1, po, read-out: TGI
[37] = in vitro; conditions: human, UWB1.289 cells expressing BRCA1
Description: Cytotoxicity against human UWB1.289 cells expressing BRCA1 assessed as inhibition of cell proliferation after 5 to 7 days by CellTiter-Blue assay

[38] = Volume of distribution at steady state in rat; conditions: in vivo
[39] = Volume of distribution at steady state in dog; conditions: in vivo

CL [1]: 7 µL/min
microsomal CLint [2]: 4 µL/min/mg
SMILES: NC(=O)c1cccc2cn(-c3ccc([C@H]4CCCNC4)cc3)nc12

clearance [3]: 30 mL/min/kg
SMILES: NC(=O)c1cccc2cn(-c3ccccc3)nc12

CL [1]: 22 µL/min
SMILES: NC(=O)c1cccc2cn(-c3ccc(C4CCCN4)cc3)nc12 (stereo not drawn)

CL [1]: 0.7 µL/min
clearance [4]: 30 mL/min/kg
SMILES: NC(=O)c1cccc2cn(-c3ccc4c(c3)CCNC4)nc12

CL [1]: 8.7 µL/min
Drug metabolism [6]: metabolite_detected
Drug metabolism [7]: metabolite_detected
SMILES: CN(C)Cc1ccc(-n2cc3cccc(C(N)=O)c3n2)cc1
Selectivity ratio [5]: >10

pIC50 [8]: 8.42
SMILES: O=C(O)c1cccc2cn(-c3ccc([C@@H]4CCCNC4)cc3)nc12

CL [1]: 6 µL/min
SMILES: CNCc1ccc(-n2cc3cccc(C(N)=O)c3n2)cc1

CL [1]: 0.4 µL/min
clearance [4]: 30 mL/min/kg
SMILES: CNC(C)(C)c1ccc(-n2cc3cccc(C(N)=O)c3n2)cc1

CL [1]: 11 µL/min
SMILES: NC(=O)c1cccc2cn(-c3ccc(C4CCCNC4)cc3)nc12 (stereo not drawn)

inhibition [9]: > 90%
clearance [10]: 31 mL/min/kg
inhibition [11]: > 90%
half-life [12]: 5.7 h
dose excreted [13]: 45%
CL [1]: 16 µL/min
beta t1/2 [17]: 3.4 h
concentration at 24 h [19]: 100 nM
IC90 [21]: 50 nM
concentration [23]: 288 nM
fraction unbound [26]: 0.26
IC90 [27]: 46 nM
fraction unbound [28]: 0.16
IC90 [29]: 52 nM
bioavailability [33]: 57%
microsomal CLint [2]: 3 µL/min/mg
dose excreted [34]: < 5%
concentration [35]: > 2000 nM
Vd [38]: 6.9 L/kg
Vd [39]: 12.3 L/kg
SMILES: NC(=O)c1cccc2cn(-c3ccc([C@@H]4CCCNC4)cc3)nc12 [NIRAPARIB]
CC50 [14]: 56 nM
CC50 [15]: 23 nM
CC50 [16]: 24 nM
CC50 [18]: 34 nM
CC50 [20]: 852 nM
CC50 [22]: 11 nM
CC50 [24]: 20 nM
CC50 [25]: 2200 nM
TGI [30]: Active
inhibition [31]: Active
CC50 [32]: 1760 nM
inhibition in vivo at 80 mg/kg [36]: 60%
CC50 [37]: 975 nM

Reference: ChEMBL document CHEMBL3425485 (J Med Chem, 2015)
